In patent US20240425464A1, “Substituted Monohydrazides as Potent Antifungal Agents” (University of Kentucky Research Foundation, priority 2023, published 2024):
≈ marks a conversion by molar mass, not a printed value.

What was measured:
Test in all cases: MIC determination by in vitro antifungal assay
[1] = system: C. albicans ATCC MYA-1237 (F); type: cell-based, Candida albicans; settings: Candida albicans, strain F = C. albicans ATCC MYA-1237(R); read-out: MIC
In short: (§1)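 Fungi are exposed to compounds (0.06-31.3 μg/mL, double dilution) in RPMI 1640 adjusted to pH 7.0 with MOPS. Incubation runs 48 h at 35° C, based on CLSI M27-A3/M38-A2. Yeast suspensions start at ˜1×10^6 CFU/mL and are diluted 1:100.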

[2] = system: C. albicans ATCC MYA-2310 (E); type: cell-based, Candida albicans; settings: Candida albicans, strain E = C. albicans ATCC MYA-2310; read-out: MIC
In short: as §1

[3] = system: C. albicans ATCC MYA-2876 (C); type: cell-based, Candida albicans; settings: Candida albicans, strain C = C. albicans ATCC MYA-2876(S); read-out: MIC
In short: as §1

[4] = system: C. albicans ATCC MYA-1003 (G); type: cell-based, Candida albicans; settings: Candida albicans, strain G = C. albicans ATCC MYA-1063(R) (footnote); MYA-1003 in text; read-out: MIC
In short: as §1

[5] = system: C. albicans ATCC 90819 (D); type: cell-based, Candida albicans; settings: Candida albicans, ATCC90819, strain D = C. albicans ATCC 90819(R); read-out: MIC
In short: as §1

[6] = system: C. albicans ATCC 64124 (B); type: cell-based, Candida albicans; settings: Candida albicans, ATCC64124, strain B = C. albicans ATCC 64124; read-out: MIC
In short: as §1

[7] = system: Candida parapsilosis ATCC 22019 (J); type: cell-based; settings: Lodderomyces parapsilosis, ATCC22019, strain J = C. parapsilosis ATCC 22019; read-out: MIC
In short: as §1

[8] = system: Candida krusei ATCC 6258 (I); type: cell-based; settings: Pichia kudriavzevii, ATCC6258, strain I = C. krusei ATCC 6258; read-out: MIC
In short: as §1

[9] = system: Candida glabrata ATCC 2001 (H); type: cell-based; settings: Nakaseomyces glabratus, ATCC 2001 / ATCC 2004, strain H = C. glabrata ATCC 2004 (footnote); ATCC 2001 in text; read-out: MIC
In short: as §1

O=C(NNc1ccc(F)cc1)c1nc(F)ccc1F [Compound 8d]
MIC [1]: 0.98 µg/mL (≈ 3.67 µM) | MIC [2]: 0.98 µg/mL (≈ 3.67 µM) | MIC [3]: 0.98 µg/mL (≈ 3.67 µM) | MIC [4]: 0.49 µg/mL (≈ 1.83 µM) | MIC [5]: 0.98 µg/mL (≈ 3.67 µM) | MIC [6]: 0.98 µg/mL (≈ 3.67 µM) | MIC [7]: 7.8 µg/mL (≈ 29.2 µM) | MIC [8]: 0.24 µg/mL (≈ 0.898 µM) | MIC [9]: 15.6 µg/mL (≈ 58.4 µM)

COc1ccc(NNC(=O)c2cnccn2)cc1 [Compound 9f]
MIC [1]: 0.98 µg/mL (≈ 4.01 µM) | MIC [2]: 1.95 µg/mL (≈ 7.98 µM) | MIC [3]: 1.95 µg/mL (≈ 7.98 µM) | MIC [4]: 1.95 µg/mL (≈ 7.98 µM) | MIC [5]: 0.98 µg/mL (≈ 4.01 µM) | MIC [6]: 0.98 µg/mL (≈ 4.01 µM) | MIC [7]: 3.9 µg/mL (≈ 16 µM) | MIC [8]: 0.98 µg/mL (≈ 4.01 µM) | MIC [9]: 0.98 µg/mL (≈ 4.01 µM)

O=C(NNc1cccc(Cl)c1)c1cnccn1 [Compound 9b]
MIC [1]: 0.98 µg/mL (≈ 3.94 µM) | MIC [2]: 7.8 µg/mL (≈ 31.4 µM) | MIC [3]: 1.95 µg/mL (≈ 7.84 µM) | MIC [4]: 0.98 µg/mL (≈ 3.94 µM) | MIC [5]: 3.9 µg/mL (≈ 15.7 µM) | MIC [6]: 1.95 µg/mL (≈ 7.84 µM) | MIC [7]: 1.95 µg/mL (≈ 7.84 µM) | MIC [8]: 0.24 µg/mL (≈ 0.965 µM) | MIC [9]: 3.9 µg/mL (≈ 15.7 µM)

O=C(NNc1ccc(F)cc1F)c1nc(F)ccc1F [Compound 8g]
MIC [1]: 1.95 µg/mL (≈ 6.84 µM) | MIC [2]: 1.95 µg/mL (≈ 6.84 µM) | MIC [3]: 1.95 µg/mL (≈ 6.84 µM) | MIC [4]: 0.98 µg/mL (≈ 3.44 µM) | MIC [5]: 3.9 µg/mL (≈ 13.7 µM) | MIC [6]: 1.95 µg/mL (≈ 6.84 µM) | MIC [7]: 15.6 µg/mL (≈ 54.7 µM) | MIC [8]: 0.49 µg/mL (≈ 1.72 µM) | MIC [9]: 15.6 µg/mL (≈ 54.7 µM)
